This experiment deals with Cav3.2 (Homo sapiens, UniProt O95180). In words: Calcium flux FLIPR assay, HEK293 cells recombinantly expressing Cav3.2. The format is cell-based. To be noted: Cav3.2-channel, Ca2+ entry stimulated by 10 mM CaCl2. The method, boiled down: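 Fluo-4-loaded HEK293 cells stably expressing Cav3.2, seeded overnight at 37 °C; compounds diluted in TEAC buffer (pH 7.2) and preincubated 3 min before Ca2+ entry triggered with CaCl2 at 10 mM final. Area under FLIPR fluorescence trace fitted sigmoidally; IC50 relative to vehicle signal.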
Sequence of Cav3.2 (O95180 whole entry, looked up): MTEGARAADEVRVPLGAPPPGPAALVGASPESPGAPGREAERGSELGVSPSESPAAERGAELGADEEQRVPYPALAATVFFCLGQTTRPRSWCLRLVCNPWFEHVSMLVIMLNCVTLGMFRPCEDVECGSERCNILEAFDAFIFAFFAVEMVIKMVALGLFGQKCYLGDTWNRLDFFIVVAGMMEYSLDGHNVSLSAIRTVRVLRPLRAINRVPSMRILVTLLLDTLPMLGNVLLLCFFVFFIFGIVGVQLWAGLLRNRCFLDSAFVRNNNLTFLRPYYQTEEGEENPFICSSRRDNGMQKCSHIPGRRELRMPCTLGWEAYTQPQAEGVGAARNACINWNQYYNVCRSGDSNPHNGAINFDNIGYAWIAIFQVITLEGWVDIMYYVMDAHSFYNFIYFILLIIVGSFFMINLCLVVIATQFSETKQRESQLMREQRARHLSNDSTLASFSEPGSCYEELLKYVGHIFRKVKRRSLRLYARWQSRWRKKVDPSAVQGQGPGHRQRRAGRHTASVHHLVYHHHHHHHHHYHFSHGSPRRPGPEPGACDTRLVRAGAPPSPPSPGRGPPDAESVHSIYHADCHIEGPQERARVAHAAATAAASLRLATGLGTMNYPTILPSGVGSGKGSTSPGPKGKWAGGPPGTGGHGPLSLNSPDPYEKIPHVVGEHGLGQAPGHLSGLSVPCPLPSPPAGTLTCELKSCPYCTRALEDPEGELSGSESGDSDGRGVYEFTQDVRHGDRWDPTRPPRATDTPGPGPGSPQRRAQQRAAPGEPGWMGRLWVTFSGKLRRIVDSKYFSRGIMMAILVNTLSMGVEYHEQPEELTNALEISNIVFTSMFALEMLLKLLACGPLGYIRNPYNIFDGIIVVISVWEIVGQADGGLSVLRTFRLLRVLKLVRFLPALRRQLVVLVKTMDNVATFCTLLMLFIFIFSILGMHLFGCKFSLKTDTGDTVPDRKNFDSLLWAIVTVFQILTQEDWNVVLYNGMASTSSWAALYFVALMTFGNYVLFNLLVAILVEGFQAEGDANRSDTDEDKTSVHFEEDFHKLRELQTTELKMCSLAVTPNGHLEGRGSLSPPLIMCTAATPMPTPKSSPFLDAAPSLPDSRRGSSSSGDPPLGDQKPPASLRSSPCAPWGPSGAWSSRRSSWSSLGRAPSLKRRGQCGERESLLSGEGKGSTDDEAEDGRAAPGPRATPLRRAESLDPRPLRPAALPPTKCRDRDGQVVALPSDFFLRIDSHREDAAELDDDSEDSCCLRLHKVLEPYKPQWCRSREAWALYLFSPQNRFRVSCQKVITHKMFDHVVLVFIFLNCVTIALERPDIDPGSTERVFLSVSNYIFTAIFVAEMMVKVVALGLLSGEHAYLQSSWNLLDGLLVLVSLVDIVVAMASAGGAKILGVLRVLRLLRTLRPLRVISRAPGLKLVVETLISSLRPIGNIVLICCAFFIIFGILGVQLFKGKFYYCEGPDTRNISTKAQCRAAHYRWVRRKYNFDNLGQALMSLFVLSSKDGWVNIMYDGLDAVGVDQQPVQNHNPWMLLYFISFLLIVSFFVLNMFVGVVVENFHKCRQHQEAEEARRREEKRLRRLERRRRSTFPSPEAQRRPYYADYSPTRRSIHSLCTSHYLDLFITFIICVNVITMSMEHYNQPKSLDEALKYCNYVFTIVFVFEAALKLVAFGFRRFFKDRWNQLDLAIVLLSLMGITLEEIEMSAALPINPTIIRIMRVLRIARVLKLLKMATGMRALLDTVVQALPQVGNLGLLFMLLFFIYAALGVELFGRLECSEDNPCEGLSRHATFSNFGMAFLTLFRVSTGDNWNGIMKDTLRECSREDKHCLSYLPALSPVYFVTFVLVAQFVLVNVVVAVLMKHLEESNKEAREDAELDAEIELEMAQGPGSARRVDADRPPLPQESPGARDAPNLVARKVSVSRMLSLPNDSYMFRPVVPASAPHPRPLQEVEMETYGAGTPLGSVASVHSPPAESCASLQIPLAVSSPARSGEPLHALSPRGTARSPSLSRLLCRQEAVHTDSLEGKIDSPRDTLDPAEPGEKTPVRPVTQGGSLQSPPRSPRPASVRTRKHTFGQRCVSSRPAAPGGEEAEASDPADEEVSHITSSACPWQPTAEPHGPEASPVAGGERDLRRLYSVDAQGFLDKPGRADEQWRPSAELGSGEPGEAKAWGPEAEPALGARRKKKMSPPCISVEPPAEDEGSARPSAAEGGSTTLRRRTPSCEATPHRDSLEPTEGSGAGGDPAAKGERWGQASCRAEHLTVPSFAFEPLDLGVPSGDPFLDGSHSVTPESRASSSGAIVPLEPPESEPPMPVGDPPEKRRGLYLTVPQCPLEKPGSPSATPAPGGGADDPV
On the technique in general: Calcium assays in cells follow changes in intracellular calcium, usually with a dye or a luminescent sensor.

pIC50: −log10 of the molar value.

A word on the pIC50: it is the negative decadic logarithm of the IC50, by convention in mol/L. In the case of `N#Cc1ccc(Cn2ncc(NC(=O)Cc3ccc(N4CCCC4)nc3)n2)cc1` [Example 98, N-[2-(4-Cyano-benzyl)-2H-[1,2,3]triazol-4-yl]-2-(6-pyrrolidin-1-yl-pyridin-3-yl)-acetamide], the pIC50 was 7.08.

`Cn1ccc2cc(CC(=O)Nc3cnn(Cc4ccc(C#N)cc4)n3)ccc21` [Example 99, N-[2-(4-Cyano-benzyl)-2H-[1,2,3]triazol-4-yl]-2-(1-methyl-1H-indol-5-yl)-acetamide]: the pIC50 is 7.72.

In the case of `Cc1cn(C)c2ccc(CC(=O)Nc3cnn(Cc4ccc(C#N)cc4)n3)cc12` [Example 100, N-[2-(4-Cyano-benzyl)-2H-[1,2,3]triazol4-yl]-2-(1,3-dimethyl-1H-indol-5-yl)-acetamide], the pIC50 was 7.66.

As to `Cn1ncc2ccc(CC(=O)Nc3cnn(Cc4ccc(C#N)cc4)n3)cc21` [Example 101, N-[2-(4-Cyano-benzyl)-2H-[1,2,3]triazol-4-yl]-2-(1-methyl-1H-indazol-6-yl)-acetamide], the pIC50 is 6.32.

As to `Cc1nn(C)c2ccc(CC(=O)Nc3cnn(Cc4ccc(C#N)cc4)n3)cc12` [Example 102, N-[2-(4-Cyano-benzyl)-2H-[1,2,3]triazol-4-yl]-2-(1,3-dimethyl-1H-indazol-5-yl)-acetamide], the pIC50 was 6.80.

Regarding `CCn1ncc2cc(CC(=O)Nc3cnn(Cc4ccc(C#N)cc4)n3)ccc21` [Example 103, N-[2-(4-Cyano-benzyl)-2H-[1,2,3]triazol-4-yl]-2-(1-ethyl-1H-indazol-5-yl)-acetamide], the pIC50 is 7.13.

For the compound `CCCn1ncc2cc(CC(=O)Nc3cnn(Cc4ccc(C#N)cc4)n3)ccc21` [Example 104, N-[2-(4-Cyano-benzyl)-2H-[1,2,3]triazol-4-yl]-2-(1-propyl-1H-indazol-5-yl)-acetamide], the pIC50 was 7.15.

With `Cc1cn(C)c2cc(CC(=O)Nc3cnn(Cc4ccc(C#N)c(F)c4)n3)ccc12` [Example 105, N-[2-(4-Cyano-3-fluoro-benzyl)-2H-[1,2,3]triazol-4-yl]-2-(1,3-dimethyl-1H-indol-6-yl)-acetamide], the pIC50 is 7.70.

As to `Cc1cn(C)c2cc(CC(=O)Nc3cnn(Cc4ccc(C#N)cc4)n3)ccc12` [Example 106, N-[2-(4-Cyano-benzyl)-2H-[1,2,3]triazol-4-yl]-2-(1,3-dimethyl-1H-indol-6-yl)-acetamide], the pIC50 was 7.44.

For `COc1cc(Cn2ncc(NC(=O)Cc3ccc(OCC4COC4)cc3)n2)ccc1F` [Example 108, N-[2-(4-Fluoro-3-methoxy-benzyl)-2H-[1,2,3]triazol-4-yl]-2-[4-(oxetan-3-ylmethoxy)-phenyl]-acetamide], the pIC50 is 6.52.

As for `COc1cc(Cn2ncc(NC(=O)Cc3ccc4cnn(C)c4c3)n2)ccc1F` [Example 109, N-[2-(4-Fluoro-3-methoxy-benzyl)-2H-[1,2,3]triazol-4-yl]-2-(1-methyl-1H-indazol-6-yl)-acetamide], the pIC50 is 6.72.

Take `COc1cc(Cn2ncc(NC(=O)Cc3ccc(C4(OC)COC4)cc3)n2)ccc1F` [Example 110, N-[2-(4-Fluoro-3-methoxy-benzyl)-2H-[1,2,3]triazol-4-yl]-2-[4-(3-methoxy-oxetan-3-yl)-phenyl]-acetamide]: the pIC50 was 6.85.

With `COc1cc(Cn2ncc(NC(=O)Cc3ccc(OCC4CC(F)(F)C4)cc3)n2)ccc1F` [Example 111, 2-[4-(3,3-Difluoro-cyclobutylmethoxy)-phenyl]-N-[2-(4-fluoro-3-methoxy-benzyl)-2H-[1,2,3]triazol-4-yl]-acetamide], the pIC50 is 7.24.

For `COc1cc(Cn2ncc(NC(=O)Cc3ccc(OCC4(C)COC4)cc3)n2)ccc1F` [Example 112, N-[2-(4-Fluoro-3-methoxy-benzyl)-2H-[1,2,3]triazol-4-yl]-2-[4-(3-methyl-oxetan-3-ylmethoxy)-phenyl]-acetamide], the pIC50 was 6.72.

The values above are taken from patent publication US10246426B2, “Triazole compounds as T-type calcium channel blockers” (IDORSIA PHARMACEUTICALS LTD, priority 2014, dated 2019).
